According to ChEMBL document CHEMBL1201862, “PubChem BioAssay data set” (2004):
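Grown in 96-well plates, cells were treated for 48 hours with each compound at five concentrations. Insufficient inhibition: endpoint recorded as highest concentration tested. The concentration for 50% growth inhibition is given as GI50.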 Active and inactive are the calls of the source. No stated cut-off is given here; in the data, active = GI50 up to about 1.1 µM and inactive = higher.

Columns and labels:
Assay in all cases: inhibition of tumour cell growth, NCI panel, 48 h
SF-295 = test system: SF-295
COLO 205 = test system: COLO 205
MDA-MB-231 = test system: MDA-MB-231
PC-3 = test system: PC-3
IGROV-1 = test system: IGROV-1
K562 = test system: K562
A498 = test system: A498
T47D = test system: T47D
HL-60 = test system: HL-60
MCF7 = test system: MCF7
CAKI-1 = test system: CAKI-1
MDA-MB-435 = test system: MDA-MB-435
MDA-N = test system: MDA-N
SNB-75 = test system: SNB-75
SF-539 = test system: SF-539
OVCAR-4 = test system: OVCAR-4
NCI-H522 = test system: NCI-H522
SR = test system: SR
Malme-3M = test system: Malme-3M
BT-549 = test system: BT-549

Row | SMILES | GI50 (SF-295) | GI50 (COLO 205) | GI50 (MDA-MB-231) | GI50 (PC-3) | GI50 (IGROV-1) | GI50 (K562) | GI50 (A498) | GI50 (T47D) | GI50 (HL-60) | GI50 (MCF7) | GI50 (CAKI-1) | GI50 (MDA-MB-435) | GI50 (MDA-N) | GI50 (SNB-75) | GI50 (SF-539) | GI50 (OVCAR-4) | GI50 (NCI-H522) | GI50 (SR) | GI50 (Malme-3M) | GI50 (BT-549)
1 | COc1ccc(/N=c2/[nH]c(N)c(C(=O)c3ccc(OC)cc3)s2)cc1 | 0.159 µM (active) | 0.279 µM (active) | 1 µM (active) | 0.284 µM (active) | 0.471 µM (active) | 0.0492 µM (active) | 0.46 µM (active) | 18.7 µM (inactive) | 0.119 µM (active) | 3.23 µM (inactive) | 0.313 µM (active) | 0.0306 µM (active) | 0.0301 µM (active) | 0.31 µM (active) | 0.313 µM (active) | 0.755 µM (active) | 0.127 µM (active) |  |  | 
2 | CCOC(=O)/C(C(=S)NC)=C(/N)N1CCCC1 | > 100 µM (inactive) | > 100 µM (inactive) | > 100 µM (inactive) | > 100 µM (inactive) | > 100 µM (inactive) | > 100 µM (inactive) | > 100 µM (inactive) | > 100 µM (inactive) | > 100 µM (inactive) |  | 77.1 µM (inactive) | > 100 µM (inactive) | > 100 µM (inactive) |  | > 100 µM (inactive) | > 100 µM (inactive) | > 100 µM (inactive) | > 100 µM (inactive) | > 100 µM (inactive) | 
3 | O=C1Nc2ccc(Br)cc2/C1=N/N1C(=O)C(=O)N(C2CCCCC2)C1=S | 3.16 µM (inactive) | 2.92 µM (inactive) | 6.64 µM (inactive) | 3.52 µM (inactive) |  | 3.69 µM (inactive) | 3.76 µM (inactive) | 2.62 µM (inactive) | 2.16 µM (inactive) | 4.17 µM (inactive) | 3.1 µM (inactive) | 1.94 µM (inactive) | 2.02 µM (inactive) |  | 5.66 µM (inactive) | 4.44 µM (inactive) |  | 1.19 µM (inactive) | 3.21 µM (inactive) | 
4 | COc1ccc(/C=C/[N+](=O)[O-])cc1 | 2.62 µM (inactive) | 4.04 µM (inactive) | 19.4 µM (inactive) |  | 3.57 µM (inactive) | 3.53 µM (inactive) | 5.15 µM (inactive) |  | 2.77 µM (inactive) | 2.02 µM (inactive) |  | 1.86 µM (inactive) |  | 14.9 µM (inactive) | 1.66 µM (inactive) | 16.7 µM (inactive) | 20.4 µM (inactive) | 2.03 µM (inactive) | 19.1 µM (inactive) | 
5 | O=C(Cn1c2c(c3ccccc31)CCCC2)N1CCCC1 | 61.8 µM (inactive) | > 100 µM (inactive) |  | > 100 µM (inactive) | > 100 µM (inactive) | > 10 µM (inactive) | 65 µM (inactive) |  | 94.6 µM (inactive) | > 100 µM (inactive) | > 100 µM (inactive) | 77.1 µM (inactive) | > 100 µM (inactive) |  | 69.8 µM (inactive) | 27.4 µM (inactive) |  | 88.9 µM (inactive) | > 100 µM (inactive) | > 100 µM (inactive)
6 | C1=NN2C(c3ccccc3)=NOC2C2C(c3ccccc3)=NOC12 (stereo unspecified) | > 100 µM (inactive) | > 100 µM (inactive) | > 100 µM (inactive) | > 100 µM (inactive) | > 100 µM (inactive) |  |  |  |  | > 100 µM (inactive) | > 100 µM (inactive) |  | > 100 µM (inactive) | > 100 µM (inactive) | > 100 µM (inactive) |  | 42.9 µM (inactive) |  | > 100 µM (inactive) | > 100 µM (inactive)
7 | Cn1c(-c2c(C3=CC(=O)N(c4ccccc4)C3=O)c3ccccc3n2C)cc2ccccc21 | 34.1 µM (inactive) | > 100 µM (inactive) | > 100 µM (inactive) | > 100 µM (inactive) | > 100 µM (inactive) | 69.2 µM (inactive) |  | > 100 µM (inactive) | 45.1 µM (inactive) | > 100 µM (inactive) | > 100 µM (inactive) | > 100 µM (inactive) | > 100 µM (inactive) | 55.8 µM (inactive) | > 100 µM (inactive) | > 100 µM (inactive) | 50 µM (inactive) | 17.7 µM (inactive) | 7.41 µM (inactive) | 
8 | CC1=C(C#N)C2C(=C(C)N1)C(N)=Nc1ccccc12 (stereo unspecified) | 30.6 µM (inactive) | 42.8 µM (inactive) | 31.8 µM (inactive) | 29.6 µM (inactive) | 29.9 µM (inactive) |  | 22.3 µM (inactive) | 31.4 µM (inactive) | 29.3 µM (inactive) | 80.5 µM (inactive) | 49.8 µM (inactive) |  | 43.2 µM (inactive) | 8.17 µM (inactive) | 29.7 µM (inactive) | 37.4 µM (inactive) | 30.8 µM (inactive) | 41.1 µM (inactive) | 37.8 µM (inactive) | 
9 | CC(NC1=NCCO1)c1cccs1 (stereo unspecified) | 16.5 µM (inactive) | 19.5 µM (inactive) | 76.7 µM (inactive) |  | 23.1 µM (inactive) | 22.1 µM (inactive) | 74 µM (inactive) | 36.4 µM (inactive) | 17.9 µM (inactive) | 22.7 µM (inactive) |  | 19.7 µM (inactive) |  | 37.7 µM (inactive) |  | 30.8 µM (inactive) |  | 26.4 µM (inactive) | 21.4 µM (inactive) | 
10 | COc1ccc(/C(Cl)=C(\C=N/O)c2ccc(OC)c(OC)c2)cc1OC | 81.7 µM (inactive) | > 100 µM (inactive) |  |  | > 100 µM (inactive) | > 100 µM (inactive) | > 100 µM (inactive) |  | > 100 µM (inactive) |  | > 100 µM (inactive) |  |  | > 100 µM (inactive) | > 100 µM (inactive) | > 100 µM (inactive) | > 100 µM (inactive) | > 100 µM (inactive) | > 100 µM (inactive) | 
11 | C[C@@]1(O)C2CC3CC1(c1ccccc1)CC(/C3=N/O)/C2=N\O (stereo partly specified) | > 100 µM (inactive) | > 100 µM (inactive) | > 100 µM (inactive) | > 100 µM (inactive) | > 100 µM (inactive) | > 100 µM (inactive) | > 100 µM (inactive) | > 100 µM (inactive) | > 100 µM (inactive) |  | > 100 µM (inactive) | > 100 µM (inactive) |  | > 100 µM (inactive) | > 100 µM (inactive) | > 100 µM (inactive) | > 100 µM (inactive) | > 100 µM (inactive) | > 100 µM (inactive) | 
12 | Cc1c(C(=O)O)n2c(S)nnc2c2ccccc12 | > 100 µM (inactive) | > 100 µM (inactive) | > 100 µM (inactive) | > 100 µM (inactive) | > 100 µM (inactive) | > 100 µM (inactive) | > 100 µM (inactive) | > 100 µM (inactive) | > 100 µM (inactive) | > 100 µM (inactive) | > 100 µM (inactive) | > 100 µM (inactive) | > 100 µM (inactive) |  | > 100 µM (inactive) | > 100 µM (inactive) | > 100 µM (inactive) | > 100 µM (inactive) |  | 
13 | NC(=O)CCC(NC(=O)Cc1ccccc1)C(=O)O.NC(CCC(=O)NC(=O)Cc1ccccc1)C(=O)O (stereo unspecified) | > 8130 µM (inactive) | > 8130 µM (inactive) |  |  | > 8130 µM (inactive) | > 8130 µM (inactive) | > 8130 µM (inactive) |  | > 8130 µM (inactive) |  | > 8130 µM (inactive) |  |  | 1080 µM (inactive) | > 8130 µM (inactive) | > 8130 µM (inactive) | > 8130 µM (inactive) | > 8130 µM (inactive) | > 8130 µM (inactive) | 
14 | CCOC(=O)C(C#N)C1=CC(=O)C(=O)c2ccc(O)cc21 (stereo unspecified) | 90.6 µM (inactive) | > 100 µM (inactive) | 32.1 µM (inactive) | > 100 µM (inactive) | 78 µM (inactive) | > 100 µM (inactive) | > 100 µM (inactive) | 79.4 µM (inactive) | > 100 µM (inactive) | > 100 µM (inactive) | > 100 µM (inactive) | 21.1 µM (inactive) | 18.5 µM (inactive) | 51.1 µM (inactive) | 55.3 µM (inactive) | 58.9 µM (inactive) | 26.9 µM (inactive) | > 100 µM (inactive) | 47 µM (inactive) | 
15 | Cc1cc2nn(C3CCCO3)nc2cc1C (stereo unspecified) | > 100 µM (inactive) | > 100 µM (inactive) | > 100 µM (inactive) | > 100 µM (inactive) | > 100 µM (inactive) | > 100 µM (inactive) | > 100 µM (inactive) | > 100 µM (inactive) |  | > 100 µM (inactive) | > 100 µM (inactive) | > 100 µM (inactive) | > 100 µM (inactive) | 69.3 µM (inactive) | > 100 µM (inactive) | > 100 µM (inactive) | > 100 µM (inactive) | > 100 µM (inactive) | > 100 µM (inactive) | 
16 | COc1ccc(-n2nnnc2C2(Nc3ccccc3)CCN(Cc3ccccc3)CC2)cc1 | 13.6 µM (inactive) | 6.82 µM (inactive) | 10.4 µM (inactive) |  | 11.9 µM (inactive) | 3.13 µM (inactive) | 12.8 µM (inactive) | 14.7 µM (inactive) | 2.56 µM (inactive) | 7.73 µM (inactive) |  | 3.29 µM (inactive) |  | 12.2 µM (inactive) | 16.4 µM (inactive) | 21.3 µM (inactive) |  | 5.3 µM (inactive) | 13.4 µM (inactive) | 
17 | CC(C)(NC1=NCCO1)c1ccccc1 | > 100 µM (inactive) | > 100 µM (inactive) | > 100 µM (inactive) | > 100 µM (inactive) | > 100 µM (inactive) |  | > 100 µM (inactive) | > 100 µM (inactive) |  | > 100 µM (inactive) | > 100 µM (inactive) | > 100 µM (inactive) | > 100 µM (inactive) | > 100 µM (inactive) | > 100 µM (inactive) | > 100 µM (inactive) | > 100 µM (inactive) |  | > 100 µM (inactive) | 
